In one data set the test system is A549. Briefly: SRB colorimetric cytotoxicity assay, A549. It counts as cell-based, human. The note with it: A549, 48 hours exposure; for CC50: read-out: LC50 (the source's name). The source says: (§1) The aim of this assay is to evaluate the in vitro cytostatic (ability to delay or arrest tumor cell growth) or cytotoxic (ability to kill tumor cells) activity of the samples being tested.
(§2) A colorimetric type of assay, using sulforhodamine B (SRB) reaction has been adapted for a quantitative measurement of cell growth and viability (following the technique described by Skehan P et al. J. Natl. Cancer Inst. 1990, 82, 1107-1112).
(§3) This form of assay employs SBS-standard 96-well cell culture microplates (Faircloth et al. Methods in cell science, 1988, 11(4), 201-205; Mosmann et al. Journal of. Immunological. Methods, 1983, 65(1-2), 55-63). All the cell lines used in this study, derived from different types of human cancer, were obtained from the American Type Culture Collection (ATCC).
(§4) Cells were maintained in Dulbecco's Modified Eagle Medium (DMEM) supplemented with 10% Fetal Bovine Serum (FBS), 2 mM L-glutamine, 100 U/mL penicillin and 100 U/mL streptomycin at 37° C., 5% CO2 and 98% humidity. For the experiments, cells were harvested from subconfluent cultures using trypsinization and resuspended in fresh medium before counting and plating.
(§5) Cells were seeded in 96 well microtiter plates at 5×10^3 cells per well in aliquots of 150 μL, and allowed to attach to the plate surface for 18 hours in drug free medium. One control (untreated) plate of each cell line was fixed (as described below) and used for time zero reference value. Afterwards, test samples were added to the cultures in ten serial dilutions, in aliquots of 50 μL, ranging from 10 to 0.00262 μg/mL. After 48 hours exposure, the antitumor effect was estimated by the SRB method: Briefly, cells were washed twice with PBS, fixed for 15 min in 1% glutaraldehyde solution, rinsed twice in PBS, and stained in 0.4% SRB solution for 30 min at room temperature. Cells were then rinsed several times with 1% acetic acid solution and air-dried. SRB was then extracted in 10 mM trizma base solution and the absorbance measured in an automated spectrophotometric plate reader at 490 nm. Cell survival was expressed as percentage of control cell growth. The final effect of the sample being tested was estimated by applying the NCl algorithm (Boyd M R and Paull K D. Drug Dev. Res. 1995, 34, 91-104).
(§6) Using the mean±SD of triplicate cultures, a dose-response curve was automatically generated using nonlinear regression analysis. Three reference parameters were calculated (NCl algorithm) by automatic interpolation: GI50=concentration that produces 50% growth inhibition; TGI=total growth inhibition (cytostatic effect) and LC50=concentration that produces 50% net cell killing (cytotoxic effect).

The next data set deals with HT29. Briefly: SRB colorimetric cytotoxicity assay, HT29. The format is cell-based, human. The note with it: HT29, 48 hours exposure; for CC50: read-out: LC50 (the source's name).
From the text: as §1, §2, §3, §4, §5, §6

A further data set has as its system MDA-MB-231. Kind of data set: SRB colorimetric cytotoxicity assay, MDA-MB-231. It counts as cell-based, human. The conditions noted are these: MDA-MB-231, 48 hours exposure; for CC50: read-out: LC50 (the source's name).
From the text: as §1, §2, §3, §4, §5, §6

The next data set deals with leukemia cell line L1210. The conditions noted are these: Boger and Lee 2000; cited from earlier work.

Bridge positions count the residues as written; N and C are the ends. Square brackets hold non-standard residues; d marks the D form. Peptide text beside a SMILES is read from it. I, II: the chains in the order shown. * marks the point of attachment. Quinaldoyl(3-OH) = O=C(c1nc2ccccc2cc1O)*; NMeC = CN[C@@H](CS)C(=O)O; dDap = NC[C@@H](N)C(=O)O Where only a bound is given, the exact number is not on record here.

The GI50 is the concentration that inhibits growth by half. Lower therefore signals greater sensitivity of the cells.

For the molecule `CSC[C@H]1C(=O)NC[C@@H](NC(=O)c2nc3ccccc3cc2O)C(=O)NCC(=O)N(C)[C@H]2CSSC[C@@H](C(=O)N1C)N(C)C(=O)CNC(=O)[C@H](NC(=O)c1nc3ccccc3cc1O)CNC(=O)[C@H](CSC)N(C)C2=O` [Azathiocoraline] (I: {Quinaldoyl(3-OH)}-[dDap]G[NMeC][NMeC](Me) / II: {Quinaldoyl(3-OH)}-[dDap]G[NMeC][NMeC](Me); amide I:1-II:C, I:C-II:1; disulfide I:3-II:3), in the data set with A549, the GI50 worked out at 3740 nM, the TGI is reported as over 8.90E−06 Molar and the CC50 was over 8900 nM. Besides, in the data set with HT29, the concentration for 50% growth inhibition (GI50) came out at 3120 nM, the TGI is over 8.90E−06 Molar and the CC50 is over 8900 nM. Also, in the data set on MDA-MB-231, growth was halved (GI50) at 2140 nM, the TGI is over 8.90E−06 Molar and the CC50 is over 8900 nM.

In the case of `CSC[C@H]1C(=O)N(C)C[C@@H](NC(=O)c2nc3ccccc3cc2O)C(=O)NCC(=O)N(C)[C@H]2CSSC[C@@H](C(=O)N1C)N(C)C(=O)CNC(=O)[C@H](NC(=O)c1nc3ccccc3cc1O)CN(C)C(=O)[C@H](CSC)N(C)C2=O` [Compound 2, {[3-HQA-D-Dap(Me&^1)-Gly-NMeCys(&^2)—NMe-Cys(Me)&^3][3-HQA-D-Dap(Me&^3)-Gly-NMeCys(&^2)—NMe-Cys(Me)&^1]], in the data set with A549, the GI50 turned out to be 3.39 nM, the TGI came to 2.00E−08 Molar and the CC50 came out at 165 nM. Moreover, in the data set with HT29, the GI50 came out at 20.8 nM, the TGI came to 1.13E−07 Molar and the CC50 turned out to be 747 nM. In the data set on MDA-MB-231, growth was halved (GI50) at 4.08 nM, the TGI was found to be 4.26E−08 Molar and the CC50 is 373 nM.

Take Azatriostin A: the “cytotoxic activity compared with Triostin A” value in the data set on leukemia cell line L1210 was “two orders of magnitude less active”.

The values are drawn from patent US8748388B2, “Antitumoral compounds” (Pharma Mar, S.A., priority 2008, dated 2014).
